Experimental data as given in patent publication US20240270741A1 (Cogent Biosciences, Inc., priority 2023, published 2024).

These compounds were tested against FGFR2 (Homo sapiens, UniProt P21802) (assay: FGFR wild type enzyme assay (HTRF KinEASE-TK), FGFR2). Conditions: Enz FGFR2 (nM), FGFR2 wild type enzyme assay.
Chain of FGFR2 (P21802 399-821 limits assumed): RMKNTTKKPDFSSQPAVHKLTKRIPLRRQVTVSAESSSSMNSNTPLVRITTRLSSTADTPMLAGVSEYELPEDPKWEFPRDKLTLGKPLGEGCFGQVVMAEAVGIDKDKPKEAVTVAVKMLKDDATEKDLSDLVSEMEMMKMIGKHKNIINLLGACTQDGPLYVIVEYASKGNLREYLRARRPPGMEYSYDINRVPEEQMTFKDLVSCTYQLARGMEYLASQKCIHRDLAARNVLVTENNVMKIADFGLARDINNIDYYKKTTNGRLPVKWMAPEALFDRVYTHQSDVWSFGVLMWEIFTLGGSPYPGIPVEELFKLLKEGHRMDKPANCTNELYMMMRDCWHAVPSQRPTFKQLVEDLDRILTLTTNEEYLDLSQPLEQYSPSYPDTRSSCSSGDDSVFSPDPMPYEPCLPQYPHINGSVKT
`CS(=O)(=O)N1CCC(n2cc(-c3cc(Sc4ccccc4C#N)c4c(C#N)cnn4c3)cn2)CC1` [Example 513, 4-((2-cyanophenyl)thio)-6-(1-(1-(methylsulfonyl)piperidin-4-yl)-1H-pyrazol-4-yl)pyrazolo[1,5-a]pyridine-3-carbonitrile] was tested, and the IC50 was 1 nM. Compound `CS(=O)(=O)N1CCC[C@H](n2cc(-c3cc(Sc4ccccc4C#N)c4c(C#N)cnn4c3)cn2)C1` [Example 514, (S)-4-((2-cyanophenyl)thio)-6-(1-(1-(methylsulfonyl)piperidin-3-yl)-1H-pyrazol-4-yl)pyrazolo[1,5-a]pyridine-3-carbonitrile] has an IC50 of 1 nM. In the case of `CN1CCC[C@H](n2cc(-c3cc(Sc4ccccc4C#N)c4c(C#N)cnn4c3)cn2)C1` [Example 515, (S)-4-((2-cyanophenyl)thio)-6-(1-(1-methylpiepridin-3-yl)-1H-pyrazol-4-yl)pyrazolo[1,5-a]pyridine-3-carbonitrile], the IC50 is reported as 1 nM. Work on `CC(=O)N1CCC[C@H](n2cc(-c3cc(Sc4ccccc4C#N)c4c(C#N)cnn4c3)cn2)C1` [Example 516, (S)-6-(1-(1-acetylpiperidin-3-yl)-1H-pyrazol-4-yl)-4-((2-cyanophenyl)thio)pyrazolo [1,5-a]pyridine-3-carbonitrile] yielded an IC50 of 0.4 nM. `N#Cc1ccccc1Sc1cc(-c2cnn([C@H]3CCCN(C(=O)CO)C3)c2)cn2ncc(C#N)c12` [Example 517, (S)-4-((2-cyanophenyl)thio)-6-(1-(1-(2-hydroxyacetyl)piperidin-3-yl)-1H-pyrazol-4-yl)pyrazolo[1,5-a]pyridine-3-carbonitrile] showed an IC50 of 0.4 nM. With `N#Cc1ccccc1Sc1cc(-c2cnn([C@H]3CCCC[C@@H]3O)c2)cn2ncc(C#N)c12` [Example 518, 4-((2-cyanophenyl)thio)-6-(1-((1S,2S)-2-hydroxycyclohexyl)-1H-pyrazol-4-yl)pyrazolo[1,5-a]pyridine-3-carbonitrile] the IC50 was 0.4 nM. Compound `N#Cc1ccccc1Sc1cc(-c2cnn([C@@H]3CCCC[C@H]3O)c2)cn2ncc(C#N)c12` [Example 519, 4-((2-cyanophenyl)thio)-6-(1-((1R,2R)-2-hydroxycyclohexyl)-1H-pyrazol-4-yl)pyrazolo[1,5-a]pyridine-3-carbonitirle] has an IC50 of 1 nM. `CC(=O)N1CCCC(n2cc(-c3cc(Sc4ccccc4C#N)c4c(C#N)cnn4c3)cn2)CC1` (stereo not shown) [Example 520, 6-(1-(1-acetylazepan-4-yl)-1H-pyrazol-4-yl)-4-((2-cyanophenyl)thio)pyrazolo [1,5-a]pyridine-3-carbonitrile] showed an IC50 of 0.4 nM. In the case of `N#Cc1cnn2cc(-c3cnn(CCCO)c3)cc(Sc3ncccc3F)c12` [Example 521, 4-((3-fluoropyridin-2-yl)thio)-6-(1-(3-hydroxypropyl)-1H-pyrazol-4-yl)pyrazolo[1,5-a]pyridine-3-carbonitrile], the IC50 is reported as 2 nM. For `N#Cc1cnn2cc(-c3cnn(C[C@@H](O)CO)c3)cc(Sc3ncccc3F)c12` [Example 522, (R)-6-(1-(2,3-dihydroxypropyl)-1H-pyrazol-4-yl)-4-((3-fluoropyridin-2-yl)thio)pyrazolo[1,5-a]pyridine-3-carbonitrile], the IC50 was 2 nM. `N#Cc1cnn2cc(-c3cnn(C[C@H](O)CO)c3)cc(Sc3ncccc3F)c12` [Example 523, (S)-6-(1-(2,3-dihydroxypropyl)-1H-pyrazol-4-yl)-4-((3-fluoropyridin-2-yl)thio)pyrazolo[1,5-a]pyridine-3-carbonitrile] was tested, and the IC50 was 2 nM. Work on `N#Cc1cnn2cc(-c3cnn(C(CO)CO)c3)cc(Sc3ncccc3F)c12` [Example 524, 6-(1-(1,3-dihydroxypropan-2-yl)-1H-pyrazol-4-yl)-4-((3-fluoropyridin-2-yl)thio)pyrazolo[1,5-a]pyridine-3-carbonitrile] yielded an IC50 of 3 nM. For `N#Cc1ccccc1Sc1cc(-c2cnn(C(CO)CO)c2)cn2ncc(C#N)c12` [Example 525, 4-((2-cyanophenyl)thio)-6-(1-(1,3-dihydroxypropan-2-yl)-1H-pyrazol-4-yl)pyrazolo[1,5-a]pyridine-3-carbonitrile], the IC50 was 1 nM. Work on `N#Cc1ccccc1Sc1cc(-c2ccc(N3CCNCC3)nc2)cn2ncc(C#N)c12` [Example 526, 4-((2-cyanophenyl)thio)-6-(6-(piperazin-1-yl)pyridin-3-yl)pyrazolo[1,5-a]pyridine-3-carbonitrile] yielded an IC50 of 1 nM. Compound `CN1CCN(c2ccc(-c3cc(Sc4ccccc4C#N)c4c(C#N)cnn4c3)cn2)CC1` [Example 527, 4-((2-cyanophenyl)thio)-6-(6-(4-methylpiperazin-1-yl)pyridin-3-yl)pyrazolo[1,5-a]pyridine-3-carbonitrile] has an IC50 of 0.4 nM. Compound `Cc1c(-c2cc(Sc3ccc(F)cc3C#N)c3c(C#N)cnn3c2)cnn1[C@@H]1CCC(C)(C)NC1` [Example 528, 4-(2-cyano-4-fluoro-phenyl)sulfanyl-6-[1-[(3R)-6,6-dimethyl-3-piperidyl]-5-methyl-pyrazol-4-yl]pyrazolo[1,5-a]pyridine-3-carbonitrile] has an IC50 of 2.5 nM. Compound `N#Cc1cnn2cc(-c3cn([C@H]4CCCNC4)nc3CO)cc(Sc3ncccc3F)c12` [Example 530, 4-[(3-fluoro-2-pyridyl)sulfanyl]-6-[3-(hydroxymethyl)-1-[(3S)-3-piperidyl]pyrazol-4-yl]pyrazolo[1,5-a]pyridine-3-carbonitrile] has an IC50 of 69 nM. `Cc1c(-c2cc(Sc3ccc(F)cc3C#N)c3c(C#N)cnn3c2)cnn1C[C@H](O)CO` [Example 531, (S)-4-((2-cyano-4-fluorophenyl)thio)-6-(1-(2,3-dihydroxypropyl)-5-methyl-1H-pyrazol-4-yl)pyrazolo[1,5-a]pyridine-3-carbonitrile] showed an IC50 of 11 nM. For `C[C@H](O)C(=O)N1CCC[C@H](n2cc(-c3cc(Sc4ccccc4C#N)c4c(C#N)cnn4c3)cn2)C1` [Example 532, 4-((2-cyanophenyl)thio)-6-(1-((S)-1-((S)-2-hydroxypropanoyl)piperidin-3-yl)-1H-pyrazol-4-yl)pyrazolo[1,5-a]pyridine-3-carbonitrile], the IC50 was 0.5 nM. With `C[C@H](O)C(=O)N1CCC[C@@H](n2cc(-c3cc(Sc4ccccc4C#N)c4c(C#N)cnn4c3)cn2)C1` [Example 533, 4-((2-cyanophenyl)thio)-6-(1-((R)-1-((S)-2-hydroxypropanoyl)piperidin-3-yl)-1H-pyrazol-4-yl)pyrazolo[1,5-a]pyridine-3-carbonitrile] the IC50 was 1 nM. For `N#Cc1ccccc1Sc1cc(-c2cnn([C@@H]3CCCN(CCO)C3)c2)cn2ncc(C#N)c12` [Example 534, (R)-4-((2-cyanophenyl)thio)-6-(1-(1-(2-hydroxyethyl)piperidin-3-yl)-1H-pyrazol-4-yl)pyrazolo[1,5-a]pyridine-3-carbonitrile], the IC50 was 0.5 nM. `N#Cc1ccccc1Sc1cc(-c2cnn([C@@H]3CCCNC3)c2)cn2ncc(C#N)c12` [Example 535, (R)-4-((2-cyanophenyl)thio)-6-(1-(piperidin-3-yl)-1H-pyrazol-4-yl)pyrazolo[1,5-a]pyridine-3-carbonitrile] gave an IC50 of 0.4 nM. Compound `N#Cc1ccccc1Sc1cc(-c2cnn([C@@H]3CCCN(C(=O)CO)C3)c2)cn2ncc(C#N)c12` [Example 536, (R)-4-((2-cyanophenyl)thio)-6-(1-(1-(2-hydroxyacetyl)piperidin-3-yl)-1H-pyrazol-4-yl)pyrazolo[1,5-a]pyridine-3-carbonitrile] has an IC50 of 1 nM. With `CC(=O)N1CCC[C@@H](n2cc(-c3cc(Sc4ccccc4C#N)c4c(C#N)cnn4c3)cn2)C1` [Example 537, (R)-6-(1-(1-acetylpiperidin-3-yl)-1H-pyrazol-4-yl)-4-((2-cyanophenyl)thio)pyrazolo [1,5-a]pyridine-3-carbonitrile] the IC50 was 1 nM. `COCC(=O)N1CCC(n2cc(-c3cc(Sc4ccccc4C#N)c4c(C#N)cnn4c3)cn2)CC1` [Example 538, 4-((2-cyanophenyl)thio)-6-(1-(1-(2-methoxyacetyl)piperidin-4-yl)-1H-pyrazol-4-yl)pyrazolo[1,5-a]pyridine-3-carbonitrile] gave an IC50 of 0.3 nM. For `Cc1ccc(-c2cc(Sc3ccccc3C#N)c3c(C#N)cnn3c2)cn1` [Example 539], the IC50 was 9 nM. For `CNC(=O)Cn1cc(-c2cc(Sc3ccccc3C#N)c3c(C#N)cnn3c2)cn1` [Example 540], the IC50 was 1 nM. `CN(C)C(=O)Cn1cc(-c2cc(Sc3ccccc3C#N)c3c(C#N)cnn3c2)cn1` [Example 541, 2-(4-(3-cyano-4-((2-cyanophenyl)thio)pyrazolo [1,5-a]pyridin-6-yl)-1H-pyrazol-1-yl)-N,N-dimethylacetamide] was tested, and the IC50 was 1 nM. `N#Cc1ccccc1Sc1cc(-c2cnn(C3CCOCC3)c2)cn2ncc(C#N)c12` [Example 542, 4-((2-cyanophenyl)thio)-6-(1-(tetrahydro-2H-pyran-4-yl)-1H-pyrazol-4-yl)pyrazolo[1,5-a]pyridine-3-carbonitrile] gave an IC50 of 0.4 nM. Compound `Cc1c(-c2cc(Sc3ccc(F)cc3C#N)c3c(C#N)cnn3c2)cnn1[C@H]1CC[C@H](OP(=O)(O)O)CC1` [Example 543, [4-[4-[3-cyano-4-(2-cyano-4-fluoro-phenyl)sulfanyl-pyrazolo[1,5-a]pyridin-6-yl]-5-methylpyrazol-1-yl]cyclohexyl] dihydrogen phosphate] has an IC50 of 2 nM. For `N#Cc1ccccc1Sc1cc(-c2cnn(C[C@H](O)CO)c2)cn2ncc(C#N)c12` [Example 544, (S)-4-((2-cyanophenyl)thio)-6-(1-(2,3-dihydroxypropyl)-1H-pyrazol-4-yl)pyrazolo[1,5-a]pyridine-3-carbonitrile], the IC50 was 1 nM. `Cn1ncc(-c2cc(Sc3ncccc3F)c3c(C#N)cnn3c2)c1N` [Example 545, 6-(5-amino-1-methyl-pyrazol-4-yl)-4-[(3-fluoro-2-pyridyl)sulfanyl]pyrazolo[1,5-a]pyridine-3-carbonitrile] was tested, and the IC50 was 3 nM. With `N#Cc1cc(F)ccc1Sc1cc(-c2cnn(-c3cn[nH]c3)c2)cn2ncc(C#N)c12` [Example 546, 6-(1′H-[1,4′-bipyrazol]-4-yl)-4-((2-cyano-4-fluorophenyl)thio)pyrazolo [1,5-a]pyridine-3-carbonitrile] the IC50 was 6 nM. For `Cc1c(-c2cc(Sc3ccc(F)cc3C#N)c3c(C#N)cnn3c2)cnn1C1CCOC1` (stereo not shown) [Example 547, 4-((2-cyano-4-fluorophenyl)thio)-6-(5-methyl-1-(tetrahydrofuran-3-yl)-1H-pyrazol-4-yl)pyrazolo[1,5-a]pyridine-3-carbonitrile], the IC50 was 3 nM.
